Measurements taken from patent US11986532B2 (Arvinas Operations, Inc., priority 2021, dated 2024).

Biological target: T1, BCL6 (Homo sapiens, UniProt P41182)
T1 construct: endogenous in cells; host or cells: T47D breast cancer epithelial cells
Test: Immunofluorescence protocol for high content imaging of BCL6 (degradation) in T47D cells, 3 days compound treatment
Format: cell-based
Conditions: for Dmax: T47D, read-out: Mean Dmax (%)** category; for DC50: read-out: Mean DC50 (nM)* category
Procedure, shortened: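 Read-out: high-content imaging of anti-BCL6 immunofluorescence (Alexa-488 secondary) with CellMask and Hoechst counterstains, 10×, 4 fields/well. Cells had 3 days of compound exposure at 37° C, 5% CO2, 11-point 3-fold series from a final top of 0.1 or 1 μM.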

CNC(=O)COc1cc2c(F)c(Nc3nc(N4CCC(CN5CCC6(CC5)CN(c5ccc7c(c5)C(=O)N(C5CCC(=O)NC5=O)C7=O)C6)CC4)ncc3Cl)ccc2n(C(C)C)c1=O (stereo not drawn) [Compound 347, 2-{[6-({5-chloro-2-[4-({2-[2-(2,6-dioxopiperidin-3-yl)-1,3-dioxo-2,3-dihydro-1H-isoindol-5-yl]-2,7-diazaspiro[3.5]nonan-7-yl}methyl)piperidin-1-yl]pyrimidin-4-yl}amino)-5-fluoro-2-oxo-1-(propan-2-yl)-1,2-dihydroquinolin-3-yl]oxy}-N-methylacetamide]
Dmax: ≥ 70% | DC50: < 10 nM

CNC(=O)COc1cc2cc(Nc3nc(N4CCC(O[C@H]5C[C@H](N6CCC(c7cc8c(cc7OC)C(=O)N(C7CCC(=O)NC7=O)C8)CC6)C5)CC4)ncc3Cl)ccc2n(C(C)C)c1=O (stereo partly drawn) [Compound 348, 2-({6-[(5-chloro-2-{4-[(1r,3r)-3-{4-[2-(2,6-dioxopiperidin-3-yl)-6-methoxy-1-oxo-2,3-dihydro-1H-isoindol-5-yl]piperidin-1-yl}cyclobutoxy]piperidin-1-yl}pyrimidin-4-yl)amino]-2-oxo-1-(propan-2-yl)-1,2-dihydroquinolin-3-yl}oxy)-N-methylacetamide]
Dmax: ≥ 70% | DC50: < 10 nM

CNC(=O)COc1cc2cc(Nc3nc(N4CCC(O[C@H]5C[C@H](N6CCC7(CCN(c8ccc9c(c8)CN(C8CCC(=O)NC8=O)C9=O)CC7)CC6)C5)CC4)ncc3Cl)ccc2n(C(C)C)c1=O (stereo partly drawn) [Compound 349, 2-({6-[(5-chloro-2-{4-[(1r,3r)-3-{9-[2-(2,6-dioxopiperidin-3-yl)-1-oxo-2,3-dihydro-1H-isoindol-5-yl]-3,9-diazaspiro [5.5]undecan-3-yl}cyclobutoxy]piperidin-1-yl}pyrimidin-4-yl)amino]-2-oxo-1-(propan-2-yl)-1,2-dihydroquinolin-3-yl}oxy)-N-methylacetamide]
Dmax: ≥ 70% | DC50: < 10 nM

CNC(=O)COc1cc2cc(Nc3nc(N4CCC(O[C@H]5C[C@H](N6CC7(CCN(c8ccc9c(c8)C(=O)N(C8CCC(=O)NC8=O)C9=O)C7)C6)C5)CC4)ncc3Cl)ccc2n(C(C)C)c1=O (stereo partly drawn) [Compound 350, 2-({6-[(5-chloro-2-{4-[(1r,3r)-3-{6-[2-(2,6-dioxopiperidin-3-yl)-1,3-dioxo-2,3-dihydro-1H-isoindol-5-yl]-2,6-diazaspiro [3.4]octan-2-yl}cyclobutoxy]piperidin-1-yl}pyrimidin-4-yl)amino]-2-oxo-1-(propan-2-yl)-1,2-dihydroquinolin-3-yl}oxy)-N-methylacetamide]
Dmax: ≥ 70% | DC50: < 10 nM

CNC(=O)COc1cc2cc(Nc3nc(N4CCC(O[C@H]5C[C@H](N6CC7(CCN(c8ccc9c(c8)CN(C8CCC(=O)NC8=O)C9=O)C7)C6)C5)CC4)ncc3Cl)ccc2n(C(C)C)c1=O (stereo partly drawn) [Compound 351, 2-({6-[(5-chloro-2-{4-[(1r,3r)-3-{6-[2-(2,6-dioxopiperidin-3-yl)-1-oxo-2,3-dihydro-1H-isoindol-5-yl]-2,6-diazaspiro [3.4]octan-2-yl}cyclobutoxy]piperidin-1-yl}pyrimidin-4-yl)amino]-2-oxo-1-(propan-2-yl)-1,2-dihydroquinolin-3-yl}oxy)-N-methylacetamide]
Dmax: ≥ 70% | DC50: < 10 nM

CNC(=O)COc1cc2cc(Nc3nc(N4CCC(CN5CCC6(CN(c7ccc8c(c7OC)CN(C7CCC(=O)NC7=O)C8=O)C6)C(F)(F)C5)CC4)ncc3Cl)ccc2n(C(C)C)c1=O (stereo not drawn) [Compound 352, 2-{[6-({5-chloro-2-[4-({2-[2-(2,6-dioxopiperidin-3-yl)-4-methoxy-1-oxo-2,3-dihydro-1H-isoindol-5-yl]-5,5-difluoro-2,7-diazaspiro [3.5]nonan-7-yl}methyl)piperidin-1-yl]pyrimidin-4-yl}amino)-2-oxo-1-(propan-2-yl)-1,2-dihydroquinolin-3-yl]oxy}-N-methylacetamide]
Dmax: < 50% | DC50: 10 to 50 nM

CNC(=O)COc1cc2cc(Nc3nc(N4CCC(O[C@H]5C[C@H](N6CC7(CN(c8ccc9c(c8)CN(C8CCC(=O)NC8=O)C9=O)C7)C6)C5)CC4)ncc3Cl)ccc2n(C(C)C)c1=O (stereo partly drawn) [Compound 353, 2-({6-[(5-chloro-2-{4-[(1r,3r)-3-{6-[2-(2,6-dioxopiperidin-3-yl)-1-oxo-2,3-dihydro-1H-isoindol-5-yl]-2,6-diazaspiro [3.3]heptan-2-yl}cyclobutoxy]piperidin-1-yl}pyrimidin-4-yl)amino]-2-oxo-1-(propan-2-yl)-1,2-dihydroquinolin-3-yl}oxy)-N-methylacetamide]
Dmax: ≥ 70% | DC50: < 10 nM

CNC(=O)COc1cc2cc(Nc3nc(N4CCC(O[C@H]5C[C@H](N6CCC7(CCCN(c8ccc9c(c8)CN(C8CCC(=O)NC8=O)C9=O)C7)C6)C5)CC4)ncc3Cl)ccc2n(C(C)C)c1=O (stereo partly drawn) [Compound 354, 2-({6-[(5-chloro-2-{4-[(1r,3r)-3-{7-[2-(2,6-dioxopiperidin-3-yl)-1-oxo-2,3-dihydro-1H-isoindol-5-yl]-2,7-diazaspiro[4.5]decan-2-yl}cyclobutoxy]piperidin-1-yl}pyrimidin-4-yl)amino]-2-oxo-1-(propan-2-yl)-1,2-dihydroquinolin-3-yl}oxy)-N-methylacetamide]
Dmax: 50 to 70% | DC50: < 10 nM

CNC(=O)COc1cc2cc(Nc3nc(N4CCC(O[C@H]5C[C@H](N6CCCC7(CCN(c8ccc9c(c8)C(=O)N(C8CCC(=O)NC8=O)C9=O)C7)C6)C5)CC4)ncc3Cl)ccc2n(C(C)C)c1=O (stereo partly drawn) [Compound 355, 2-({6-[(5-chloro-2-{4-[(1r,3r)-3-{2-[2-(2,6-dioxopiperidin-3-yl)-1,3-dioxo-2,3-dihydro-1H-isoindol-5-yl]-2,7-diazaspiro[4.5]decan-7-yl}cyclobutoxy]piperidin-1-yl}pyrimidin-4-yl)amino]-2-oxo-1-(propan-2-yl)-1,2-dihydroquinolin-3-yl}oxy)-N-methylacetamide]
Dmax: ≥ 70% | DC50: < 10 nM

CNC(=O)COc1cc2cc(Nc3nc(N4CCC(O[C@H]5C[C@H](N6CCCC7(CCN(c8ccc9c(c8)CN(C8CCC(=O)NC8=O)C9=O)C7)C6)C5)CC4)ncc3Cl)ccc2n(C(C)C)c1=O (stereo partly drawn) [Compound 356, 2-({6-[(5-chloro-2-{4-[(1r,3r)-3-{2-[2-(2,6-dioxopiperidin-3-yl)-1-oxo-2,3-dihydro-1H-isoindol-5-yl]-2,7-diazaspiro [4.5]decan-7-yl}cyclobutoxy]piperidin-1-yl}pyrimidin-4-yl)amino]-2-oxo-1-(propan-2-yl)-1,2-dihydroquinolin-3-yl}oxy)-N-methylacetamide]
Dmax: ≥ 70% | DC50: < 10 nM

CNC(=O)COc1cc2cc(Nc3nc(N4CCC(O[C@H]5C[C@H](N6CCC7(CC6)CN(c6ccc8c(c6)C(=O)N(C6CCC(=O)NC6=O)C8=O)C7)C5)CC4)ncc3Cl)ccc2n(C(C)C)c1=O (stereo partly drawn) [Compound 357, 2-({6-[(5-chloro-2-{4-[(1r,3r)-3-{2-[2-(2,6-dioxopiperidin-3-yl)-1,3-dioxo-2,3-dihydro-1H-isoindol-5-yl]-2,7-diazaspiro [3.5]nonan-7-yl}cyclobutoxy]piperidin-1-yl}pyrimidin-4-yl)amino]-2-oxo-1-(propan-2-yl)-1,2-dihydroquinolin-3-yl}oxy)-N-methylacetamide]
Dmax: ≥ 70% | DC50: < 10 nM

CNC(=O)COc1cc2cc(Nc3nc(N4CCC(CN5CCC6(CC5)CN(c5ccc7c(c5C)C(=O)N(C5CCC(=O)NC5=O)C7=O)C6)CC4)ncc3Cl)ccc2n(C(C)C)c1=O (stereo not drawn) [Compound 358, 2-{[6-({5-chloro-2-[4-({2-[2-(2,6-dioxopiperidin-3-yl)-4-methyl-1,3-dioxo-2,3-dihydro-1H-isoindol-5-yl]-2,7-diazaspiro[3.5]nonan-7-yl}methyl)piperidin-1-yl]pyrimidin-4-yl}amino)-2-oxo-1-(propan-2-yl)-1,2-dihydroquinolin-3-yl]oxy}-N-methylacetamide]
Dmax: 50 to 70% | DC50: < 10 nM

CNC(=O)COc1cc2cc(Nc3nc(N4CCC(O[C@H]5C[C@H](N6CCC7(CCCN(c8ccc9c(c8)C(=O)N(C8CCC(=O)NC8=O)C9=O)C7)C6)C5)CC4)ncc3Cl)ccc2n(C(C)C)c1=O (stereo partly drawn) [Compound 359, 2-({6-[(5-chloro-2-{4-[(1r,3r)-3-{7-[2-(2,6-dioxopiperidin-3-yl)-1,3-dioxo-2,3-dihydro-1H-isoindol-5-yl]-2,7-diazaspiro [4.5]decan-2-yl}cyclobutoxy]piperidin-1-yl}pyrimidin-4-yl)amino]-2-oxo-1-(propan-2-yl)-1,2-dihydroquinolin-3-yl}oxy)-N-methylacetamide]
Dmax: 50 to 70% | DC50: 10 to 50 nM

CNC(=O)COc1cc2cc(Nc3nc(N4CCC(O[C@H]5C[C@H](N6CCC7(CCN(c8ccc9c(c8)C(=O)N(C8CCC(=O)NC8=O)C9=O)C7)CC6)C5)CC4)ncc3Cl)ccc2n(C(C)C)c1=O (stereo partly drawn) [Compound 360, 2-({6-[(5-chloro-2-{4-[(1r,3r)-3-{2-[2-(2,6-dioxopiperidin-3-yl)-1,3-dioxo-2,3-dihydro-1H-isoindol-5-yl]-2,8-diazaspiro[4.5]decan-8-yl}cyclobutoxy]piperidin-1-yl}pyrimidin-4-yl)amino]-2-oxo-1-(propan-2-yl)-1,2-dihydroquinolin-3-yl}oxy)-N-methylacetamide]
Dmax: 50 to 70% | DC50: < 10 nM

CNC(=O)COc1cc2cc(Nc3nc(N4CCC(O[C@H]5C[C@H](N6CCC7(CCN(c8ccc9c(c8)CN(C8CCC(=O)NC8=O)C9=O)C7)CC6)C5)CC4)ncc3Cl)ccc2n(C(C)C)c1=O (stereo partly drawn) [Compound 361, 2-({6-[(5-chloro-2-{4-[(1r,3r)-3-{2-[2-(2,6-dioxopiperidin-3-yl)-1-oxo-2,3-dihydro-1H-isoindol-5-yl]-2,8-diazaspiro [4.5]decan-8-yl}cyclobutoxy]piperidin-1-yl}pyrimidin-4-yl)amino]-2-oxo-1-(propan-2-yl)-1,2-dihydroquinolin-3-yl}oxy)-N-methylacetamide]
Dmax: 50 to 70% | DC50: < 10 nM
